What was measured:
[1] = test system: sAPPα levels in A172-E4 cells; assay: Confirmation assay in A172-E4 cells, sAPPα AlphaLISA; type: cell-based, human; details: 50 μM A03 vs DMSO, cell culture medium
Experimental: (§1) Jesus Campagna, Patricia Spilman, Barbara Jagodzinska, Dongsheng Bai, Asa Hatami, Chunni Zhu, Tina Bilousova, Michael Jun, Chris Jean Elias, Johnny Pham, Gregory Cole, Mary Jo LaDu, Michael E. Jung, Dale E. Bredesen, and […]
Confirmation assay in A172-E4 cells. Befo re transfection, A172 human glioblastoma cells were cultured in Dulbecco’s Modified Eagle Medium (DMEM) supplemented with 10% fetal bovine serum and 1% penicillin/streptomycin in a 37 °C incubator in an atmosphere of 5% CO2 in air. The day of transfection, the media was replaced with Opti-MEM reduced serum medium. Transient transfection with human ApoE4 and ApoE3 constructs in pcDNA3 mammalian expression vectors or empty vector (control) was performed in 96-well plates using a 1:1 mixture of two transfection reagents - Lipofectamine 2000 and siPORT amine - in Opti-MEM as previously described13. After 4 hr incubation with transfection reagents, medium was exchanged for fresh […]
Cells were incubated with the compound for 60 hrs, then cell culture medium (for sAPPα) and cells (lysates for SirT1) were harvested and levels of sAPPα and SirT1

[2] = Pharmacokinetics after oral delivery in mice; type: in vivo; details: oral 10 mg/kg
Experimental: All in vivo experiments described were carried out in strict accordance with good animal practice according to NIH recommendations. All procedures for animal use were approved by the Animal Research Committee (ARC) at UCLA and under an approved ARC protocol. Pharmacokinetic (PK) analysis[68]–[70] consisted of oral delivery of compounds (10 mg/Kg) to individual mice followed by euthanasia at 1, 2, 4, 6, and 8 hours post-dose by ketamine/xylazine over-anesthesia, blood collection by cardiac puncture, and transcardial saline perfusion. Whole blood was centrifuged at 5000 rpm for 10 min. in a 5 °C centrifuge to isolate plasma and the plasma stored at −20 °C before analysis. Whole brains were collected, dissected down the midline, snap frozen on dry ice, and stored at −80 °C before analysis. The levels of the compounds in both plasma and brain tissue were determined by a quantitative LC/MS/MS methodology at Integrated Analytical Solutions (IAS, Berkeley, CA). Plasma samples were precipitated with an acetonitrile: methanol (1:1) cocktail containing an internal standard. Brain samples were homogenized directly in ethyl acetate by the liquid-liquid method. The resulting supernatant was evaporated to dryness and subjected to LC/MS/MS analysis. The Tmax, Cmax, brain-to-plasma ratios and brain levels were then calculated using PK Solutions software (SummitPK).

[3] = test system: APP cleavage products in E4FAD mice; assay: Second oral 56-day study, APP-derived cleavage products in hippocampus; type: in vivo; details: oral 56 days, vs vehicle
Experimental: (§2) E4FAD mice were 10–12 mo and NTg mice 7–9 mo at the start of the study.
Mice were euthanized and blood/tissues collected 2 hrs after dosing on Day 56 by the method described above for PK. Hip and FrCx were collected for analysis of SirT1, sAPPα, and Aβ1-42 levels by AlphaLISA. For Aβ1-42 the Perkin Elmer kit AL276C was used. Protein concentrations were determined using the Bradford protein assay. The sAPPα and sAPPβ AlphaLISAs were similar to the SirT1 AlphaLISA (see Supplementary Fig. S3) but the former uses anti-sAPPα antibody AF1168 and 2B3-biotinylated antibodies and the latter an anti-sAPPβ antibody (IBL Cat. #18957) and an anti-N-terminal APP antibody (R&D Systems AF1168) instead of anti-SirT1 antibodies. Brain tissue and plasma were sent to IAS for A03 level analysis.

E4FAD mice [4] = assay: Y maze Forced Alternation in 56-day study; type: in vivo; details: minute 1 or by 5 minutes
Experimental: Study mice also underwent Forced Alternation (FA) tests in a Y maze apparatus[74],[75]. Details of the method can be found in Supplementary Methods. Briefly, individual test mice are prevented from entering one of three arms of the maze in the first 5 minute trial and after 30 minutes is returned to maze wherein the blocked arm is available. Time in Novel Arm C [%] was defined as the time spent in the novel arm divided by the time spent in all arms during the first minute.
A small molecule ApoE4-targeted therapeutic candidate that normalizes sirtuin 1 levels and Improves cognition in an Alzheimer’s disease mouse model
as §1
Confirmation assay in A172-E4 cells. […]
Cells were incubated with the compound for 60 hrs, then cell culture medium (for sAPPα) and cells (lysates for SirT1) were harvested and levels of sAPPα and SirT1 determined by AlphaLISA. […]
PAMPA. […] The parameters determined are Tr = retention time of compound; KIAM= (Tr-T0)/T0; T0= is the delay time of the column, determined by use of 100 µg/mL citric acid) and was T0= 1.24 min; and (KIAM/MW4)*10-(10). […]
Forced Alternation. […] An arm entry was recorded when all 4 paws of the mouse entered the arm. […]

E4FAD mice [5] = assay: Toxicity observation and body weights in 56-day study; type: in vivo
Excerpt: as §2

patients = details: cited from earlier work

## CC(N)C(=O)OC(C)(C)Cc1ccc(Cl)cc1 (stereo not shown) [A03, alaproclate]
[1]
  sAPPα levels in A172-E4 cells: significant increase
[2]; mouse, brain, n = 1 per time point
  Tmax: 1 h
[2]; mouse, plasma, 1-8 hours
  AUC: 266 ng·h/mL
[2]; 1-8 hours
  AUC brain: 1336 ng·h/g
[3]
  Aβ1-42 in the Hip: lower than E4FAD Veh, but not significantly so
  sAPPα in the Hip: only slightly higher
  sAPPβ in the Hip: not changed
E4FAD mice [4]
  Y maze FA, entries into the Novel Arm C: no significant differences amongst groups
E4FAD mice [5]; 56-day oral study
  Body weights: stayed the same
E4FAD mice [5]; E4FAD mice, oral 56-day treatment
  Signs of toxicity by cage-side observation: no signs of toxicity
patients; human
  Liver function in Phase 1 trial for depression: some liver function changes were seen
  Toxicity in second clinical study: no toxicity up to 200 mg BID
patients; small clinical studies
  Global scores in moderate to advanced AD patients: some improvements in global scores
